Experimental data from patent US11286226B2, “Polycyclic carbogenic molecules and uses thereof as anti-cancer agents” (Northwestern University, priority 2017, dated 2022).
pIC50: −log10 of the molar value. Like-named read-outs stand apart in the source and are kept apart here.

Tests used:
[1] = Cell viability at 1 mM (CellTiter-GLO), MCF10A; type: cell-based; details: human, MCF10A cells (normal breast); 1.0 mM in DMSO, 48 h, MCF10A; read-out: Percent Cell Viability of Treated Cell Lines at 1.0 mM, MCF10A
Method: (§1) Normal breast cell line MCF10A was cultured in DMEM/F12 with 5% horse serum, 20 ng/mL EGF, […], 100 ng/mL cholera toxin, 10 μg/mL insulin, and 1% pen/strep.
(§2) Normal breast cells (MCF10A) were plated in 96-well black plates at a density of 20,000 cells per well (based on the NCI recommendation for adherent cells) in 90 μL volume of DMEM/F12 with 2% horse serum, 0.5 μg/mL hydrocortisone, 100 ng/mL cholera toxin, 10 μg/mL insulin, and 1% pen/strep, and incubated at 37° C. overnight. The compounds were diluted in the media specified above, and 10 μL of this solution was added to each well to give a final concentration of 1 mM (1% overall DMSO, N=4 wells).
(§3) Cells treated with Doxorubicin with 1% overall DMSO were used as a positive control, and cells media containing 1% DMSO were used as a negative control.
(§4) 48 hours following treatment, cell proliferation was evaluated using the CellTiter-GLO Luminescent Cell Viability Assay (Promega, Madison, Wis.). Plates were allowed to equilibrate to room temperature for 20 minutes, and 100 μL of CellTiter-GLO reagent was added to all wells. The plates were shaken for 2 minutes and incubated at room temperature for 10 minutes. Luminescence was measured using a Syngergy H1-M microplate reader (BioTek Instruments, Inc.).

MCF10A ("normal" breast) = assay: Cell viability at 1 mM (CellTiter-GLO), MCF10A; type: cell-based; details: non-tumorigenic breast epithelial cell line, 1.0 mM
Method: as §1, §2, §3, §4

[2] = test system: MDA-MB-231-LM24 (metastatic breast); assay: Cell viability at 1 mM (CellTiter-GLO), MDA-MB-231-LM24; type: cell-based; details: Homo sapiens, read-out: Percent Cell Viability of Treated Cell Lines at 1.0 mM, MDA-MB-231-LM24
Method: (§5) Cell lines PC-3, HT29, Hela, and MDA-MB-231 were cultured in RPMI1640 with 10% FBS media. Cell line MDA-MB-231-LM24 was cultured in DMEM with 400 ug/mL geneticin.
(§6) PC-3, HT29, Hela, and MDA-MB-231, and MDA-MB-231-LM24 cells were plated in […] at a density of 20,000 cells per well (based on NCI recommendation for adherent cells) in 90 μL volume of 5% FBS RPMI1640 complete media with 50 μg/mL gentamicin and incubated at 37° C. overnight. Each compound was diluted in RPMI1640 complete media supplemented with 5% FBS and 50 μg/mL of gentamycin, and 10 μL of this solution was added to each well to give a final concentration of 1 mM (1% overall DMSO, N=4 wells).
as §3, §4

HT29 (colon) = assay: Cell viability at 1 mM (CellTiter-GLO), HT29; type: cell-based; details: Homo sapiens, read-out: Percent Cell Viability of Treated Cell Lines at 1.0 mM, HT29
Method: as §5, §6, §3, §4

PC-3 (prostate) = assay: Cell viability at 1 mM (CellTiter-GLO), PC-3; type: cell-based; details: Homo sapiens, 48 h, read-out: Percent Cell Viability of Treated Cell Lines at 1.0 mM, PC-3
Method: as §5, §6, §3, §4

MDA-MB-231 (breast) = assay: Cell viability at 1 mM (CellTiter-GLO), MDA-MB-231; type: cell-based; details: Homo sapiens, read-out: Percent Cell Viability of Treated Cell Lines at 1.0 mM, MDA-MB-231
Method: as §5, §6, §3, §4

HeLa (cervix) = assay: Cell viability at 1 mM (CellTiter-GLO), HeLa; type: cell-based; details: Homo sapiens, 48 h, read-out: Percent Cell Viability of Treated Cell Lines at 1.0 mM, HeLa
Method: as §5, §6, §3, §4

[3] = test system: MDA-MB-231 (breast) cancer cell line; assay: Cell viability assay at three concentrations (FIG. 7), MDA-MB-231; type: cell-based, human; details: three different concentrations
[4] = test system: PC3 (prostate) cancer cell line; assay: Cell viability assay at three concentrations (FIG. 7), PC3; type: cell-based, human; details: three different concentrations
MDA-MB-231-LM24 = assay: IC50 experiment (CellTiter-GLO), MDA-MB-231-LM24; type: cell-based, human
Method: as §5
(§7) The compound was diluted in RPMI1640 complete media supplemented with 5% FBS and 50 μg/mL of gentamycin, and 100 μL of this solution was added to each well to give a final concentration of 0.00001-1 mM (N=4 wells). DMSO was held constant at 1%, for all dose points.
as §4, with “Inc.). The IC50 value was determined by Prism GraphPad Software.” for “Inc.).”

MCF10A = assay: IC50 experiment (CellTiter-GLO), MCF10A; type: cell-based; details: Homo sapiens, MCF-10A; 48 h, 1% DMSO; read-out: IC50 against MCF10A
Method: as §1, §7
as §4, with “Inc.). The IC50 value was determined by Prism GraphPad Software.” for “Inc.).”

Plasmodium falciparum = details: reported value (ref. 60); read-out: IC50 against the malaria parasite Plasmodium falciparum; cited from earlier work
normal human cells = details: reported (ref. 60); cited from earlier work
[5] = 1.0 mM in DMSO, 48 h, MDA-MB-231-LM24
[6] = HT-29, 1.0 mM in DMSO, 48 h, HT29
[7] = 1.0 mM in DMSO, 48 h, MDA-MB-231

Compound | viability at 48 h, 1 mM [1] [%] | viability at 1000 µM [2, 5] [%] | viability at 1000 µM (HT29 (colon); [6]) [%] | viability at 1000 µM (PC-3 (prostate); 1.0 mM in DMSO, PC-3) [%] | viability at 1000 µM (MDA-MB-231 (breast); [7]) [%] | viability at 1000 µM (HeLa (cervix); 1.0 mM in DMSO) [%] | also measured
O=C1C=CC[C@H]2C=C[C@@H]3CC=CC(=O)[C@H]3[C@H]12 [Compound 13] | 1 | 2 | 2 | 0 | 26 | 4 | activity against MCF10A cell line (MCF10A ("normal" breast)): highly active
CC1=CC[C@H]2C=C[C@@H]3CC=C(C)C(=O)[C@H]3[C@@H]2C1=O [Compound 14] | – | 67 | 1 | 72 | 69 | 46 | –
CC1=CC(=O)[C@@H]2[C@H]3C(=O)C=C(C)C[C@@H]3C=C[C@H]2C1 [Compound 15] | – | 54 | 66 | 63 | 11 | 40 | –
CC1=CC[C@H]2C=C(C)[C@@H]3CC=C(C)C(=O)[C@H]3[C@@H]2C1=O [Compound 18] | – | – | – | – | – | – | activity in cell viability assay, MDA-MB-231 [3]: promising activity; activity in cell viability assay, PC3 [4]: promising activity
CC1=CC[C@H]2C(C)=C[C@@H]3CC=CC(=O)[C@@]3(C)[C@@H]2C1=O [Compound 19] | – | 0 | 1 | 1 | 0 | 0 | –
CC1=CC[C@@H]2C(C)=C[C@@]3(C)CC=CC(=O)[C@@H]3[C@H]2C1=O [Compound 20] | – | 10 | 31 | 11 | 43 | 2 | –
CC1=CC[C@@H]2C(C)=C[C@@H]3[C@H](C(=O)C=CC3(C)C)[C@H]2C1=O [Compound 21] | 4 | – | – | – | – | – | activity against MCF10A cell line (MCF10A ("normal" breast)): highly active; viability at 1000 µM ([2]; MDA-MB-231-LM24, 48 h): 0%; viability at 1000 µM (HT29 (colon); HT-29, 48 h): 0%; viability at 1000 µM (PC-3 (prostate)): 0%; viability at 1000 µM (MDA-MB-231 (breast); MDA-MB-231, 48 h): 0%; viability at 1000 µM (HeLa (cervix)): 0%
CC1=CC[C@H]2C(C)=CCC3(CCC=CC3=O)[C@@H]2C1=O (stereo partly shown) [Compound 24] | 4 | 0 | 0 | 0 | 1 | 3 | activity against MCF10A cell line (MCF10A ("normal" breast)): highly active; activity in cell viability assay, MDA-MB-231 [3]: promising activity; activity in cell viability assay, PC3 [4]: promising activity
O=C1C=CC[C@H]2CC=C[C@@H]3CC=CC(=O)[C@H]3[C@H]12 [Compound 25] | – | 1 | 0 | 0 | 6 | 21 | –
C[C@]12CC(=O)C=C[C@@H]1CC=CC2=O [Compound 28] | – | 16 | 0 | 1 | 2 | 0 | –
C[C@@]12C=CC(=O)C[C@H]1C(=O)C=CC2 [Compound 29] | – | 26 | 8 | 2 | 62 | 22 | –
O=C1C=CC[C@@H]2[C@@H]1[C@@H]1C(=O)C=CC[C@H]1C1O[C@H]12 (stereo partly shown) [Compound 31] | 5 | 3 | 0 | 0 | 26 | 2 | activity against MCF10A cell line (MCF10A ("normal" breast)): highly active
O=C1C2O[C@@H]2C[C@H]2C=C[C@@H]3CC4O[C@H]4C(=O)[C@H]3[C@H]12 (stereo partly shown) [Compound 32] | 70 | 0 | 1 | 1 | 25 | 0 | pIC50 (MDA-MB-231-LM24; Homo sapiens, MDA-MB-231-LM24, 48 h, 1% DMSO, read-out: IC50 against MDA-MB-231-LM24): 3.70; selectivity between cancer versus "normal" cell lines (MDA-MB-231-LM24; MCF10A IC50 versus MDA-MB-231-LM24 IC50): 15 times; pIC50 (MCF10A): 2.51
O=C1CCC[C@H]2CC[C@@H]3CCCC(=O)[C@H]3[C@H]12 [Compound 33] | – | 60 | 51 | 77 | 75 | 13 | –
CC1=C[C@@H]2[C@H](C(=O)CCC2(C)C)[C@H]2C(=O)[C@@H](C)CC[C@H]12 [Compound 36] | – | 55 | 64 | 77 | 53 | 41 | –
[C-]#[N+][C@]1(C)[C@H](C)C[C@@H]2C[C@H](C)[C@H]3CC[C@](C)([N+]#[C-])[C@H]4CC[C@H]1[C@@H]2[C@H]34 [Compound 39, (+)-7,20-diisocyanoadociane] | – | – | – | – | – | – | pIC50 (Plasmodium falciparum): 8.33; activity against normal human cells (normal human cells): inert
